From patent publication US20230250083A1, “CRYSTALS” (NIPPON SHINYAKU CO., LTD., priority 2017, published 2023)

Tests used:
[1] = Crystallization experiment, operation procedure 1 (suspension stirred 2 days, cooled and warmed between 4 to 40° C.); assay type: physicochemical; design: key: —: The symbol “-” in Table 1 to Table 3 means that no precipitate was obtained
Description: (§1) Each of various solvents was added to the Form-I crystal of the present invention (several mg), crystals of the compound A were precipitated according to the following operation procedures, and the crystal form of the precipitated crystals was confirmed. The results of the operation procedures 1 to 3 are shown in Table 1 and Table 2, and the results of the operation procedure 4 are shown in Table 3. The symbol “-” in Table 1 to Table 3 means that no precipitate was obtained.
Each of various solvents (50 μL) was added to the Form-I crystal of the present invention to make a suspension thereof, and the suspension was stirred for 2 days while repeatedly being cooled and warmed between 4 to 40° C.

[2] = Crystallization experiment, operation procedure 2 (dissolved at 40° C., cooled to 4° C., stirred 3 days); assay type: physicochemical; design: key: —: The symbol “-” in Table 1 to Table 3 means that no precipitate was obtained
Description: as §1
Each of various solvents (50 μL) was added to the Form-I crystal of the present invention to dissolve the Form-I crystal of the present invention at 40° C. […] The solution was cooled to 4° C. and stirred for 3 days.

[3] = Crystallization experiment, operation procedure 3 (dissolved at 40° C., solvent gradually distilled off at room temperature); assay type: physicochemical; design: key: —: The symbol “-” in Table 1 to Table 3 means that no precipitate was obtained
Description: as §1
Each of various solvents (50 μL) was added to the Form-I crystal of the present invention to dissolve the Form-I crystal of the present invention at 40° C. […] The solvent was gradually distilled off at room temperature.

[4] = Crystallization experiment, operation procedure 4 (saturated solution, poor solvent added); assay type: physicochemical; design: key: —: The symbol “-” in Table 1 to Table 3 means that no precipitate was obtained
Description: Each of various solvents was added to the Form-I crystal of the present invention (several mg), crystals of the compound A were precipitated according to the following operation procedures, and the crystal form of the precipitated crystals was confirmed. The results of the operation procedures 1 to 3 are shown in Table 1 and Table 2, and the results of the operation procedure 4 are shown in Table 3. The symbol “-” in Table 1 to Table 3 means that no precipitate was obtained. Each of various dissolving solvents (minimum volume) was added to the Form-I crystal of the present invention to prepare a saturated solution. Various poor solvents were added thereto.

[5] = molecular target: JAK2 tyrosine kinase (Homo sapiens, UniProt O60674); details: see PATENT DOCUMENT 1; cited from earlier work
JAK2 tyrosine kinase, sequence (O60674 whole entry): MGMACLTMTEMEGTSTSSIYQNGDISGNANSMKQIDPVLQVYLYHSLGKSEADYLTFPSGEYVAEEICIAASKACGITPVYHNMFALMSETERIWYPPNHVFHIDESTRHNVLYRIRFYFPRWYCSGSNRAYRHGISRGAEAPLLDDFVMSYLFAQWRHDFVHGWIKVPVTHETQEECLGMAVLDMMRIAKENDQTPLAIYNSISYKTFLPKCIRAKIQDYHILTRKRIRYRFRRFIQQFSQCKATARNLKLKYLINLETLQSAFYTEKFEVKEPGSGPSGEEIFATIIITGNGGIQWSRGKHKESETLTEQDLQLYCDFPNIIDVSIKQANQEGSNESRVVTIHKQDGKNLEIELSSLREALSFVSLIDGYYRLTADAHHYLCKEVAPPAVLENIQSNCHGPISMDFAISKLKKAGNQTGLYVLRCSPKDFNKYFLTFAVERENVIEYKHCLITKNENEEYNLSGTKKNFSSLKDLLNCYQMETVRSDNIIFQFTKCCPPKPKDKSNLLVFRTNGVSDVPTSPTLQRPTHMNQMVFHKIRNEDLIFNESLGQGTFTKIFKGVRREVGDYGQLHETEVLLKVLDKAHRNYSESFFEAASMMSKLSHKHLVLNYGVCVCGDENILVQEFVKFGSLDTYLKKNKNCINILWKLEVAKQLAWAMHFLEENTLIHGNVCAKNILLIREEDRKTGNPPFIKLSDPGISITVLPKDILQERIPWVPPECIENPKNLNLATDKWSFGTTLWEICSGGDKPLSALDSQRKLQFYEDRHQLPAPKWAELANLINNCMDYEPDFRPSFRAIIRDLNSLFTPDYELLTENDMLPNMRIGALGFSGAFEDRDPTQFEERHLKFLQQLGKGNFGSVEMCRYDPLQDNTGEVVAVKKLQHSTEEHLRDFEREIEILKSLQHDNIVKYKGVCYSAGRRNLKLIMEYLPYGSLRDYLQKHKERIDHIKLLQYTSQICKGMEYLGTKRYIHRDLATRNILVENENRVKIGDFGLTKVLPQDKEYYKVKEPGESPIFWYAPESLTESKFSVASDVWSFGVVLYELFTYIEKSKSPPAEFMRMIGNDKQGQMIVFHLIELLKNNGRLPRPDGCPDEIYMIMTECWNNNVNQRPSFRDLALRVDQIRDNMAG

[6] = solvent 1,4-dioxane:water 80:20
[7] = solvent acetonitrile:dimethyl sulfoxide 80:20
[8] = solvent acetonitrile:water 80:20
[9] = solvent acetonitrile:water 95:5
[10] = solvent ethanol:dimethyl sulfoxide 80:20
[11] = solvent tetrahydrofuran:water 20:80
[12] = solvent tetrahydrofuran:water 95:5

crystal form of the precipitated crystals ([1]; solvent 1,4-dioxane): Form-I
crystal form of the precipitated crystals [1, 6]: Form-I
crystal form of the precipitated crystals ([1]; solvent 1-butanol): Form-I
crystal form of the precipitated crystals ([1]; solvent 1-methoxy-2 -propanol): Form-I
crystal form of the precipitated crystals ([1]; solvent 1-propanol): Form-I
crystal form of the precipitated crystals ([1]; solvent 2-methoxyethanol): Form-I
crystal form of the precipitated crystals ([1]; solvent 2-methoxyethyl ether): Form-I
crystal form of the precipitated crystals ([1]; solvent 2-propanol): Form-I
crystal form of the precipitated crystals ([1]; solvent 2-propanol:water 80:20): Form-I
crystal form of the precipitated crystals ([1]; solvent 2-propanol:water 95:5): Form-I
crystal form of the precipitated crystals ([1]; solvent N,N-dimethylformamide): —
crystal form of the precipitated crystals ([1]; solvent N-methylpyrrolidone): —
crystal form of the precipitated crystals ([1]; solvent acetone): Form-I
crystal form of the precipitated crystals ([1]; solvent acetone:water 20:80): Form-I
crystal form of the precipitated crystals ([1]; solvent acetone:water 80:20): Form-I
crystal form of the precipitated crystals ([1]; solvent acetone:water 95:5): Form-I
crystal form of the precipitated crystals ([1]; solvent acetonitrile): Form-I
crystal form of the precipitated crystals [1, 7]: Form-I
crystal form of the precipitated crystals [1, 8]: Form-I
crystal form of the precipitated crystals [1, 9]: Form-I
crystal form of the precipitated crystals ([1]; solvent chlorobenzene): Form-I
crystal form of the precipitated crystals ([1]; solvent chloroform): Form-I
crystal form of the precipitated crystals ([1]; solvent cyclohexane): Form-I
crystal form of the precipitated crystals ([1]; solvent cyclohexanone): Form-I
crystal form of the precipitated crystals ([1]; solvent dichloromethane): Form-I
crystal form of the precipitated crystals ([1]; solvent dimethyl carbonate): Form-I
crystal form of the precipitated crystals ([1]; solvent dimethyl sulfoxide): —
crystal form of the precipitated crystals ([1]; solvent ethanol): Form-I
crystal form of the precipitated crystals [1, 10]: Form-I
crystal form of the precipitated crystals ([1]; solvent ethanol:water 20:80): Form-I
crystal form of the precipitated crystals ([1]; solvent ethyl acetate): Form-I
crystal form of the precipitated crystals ([1]; solvent heptane): Form-I
crystal form of the precipitated crystals ([1]; solvent isopropyl acetate): Form-I
crystal form of the precipitated crystals ([1]; solvent isopropyl ether): Form-I
crystal form of the precipitated crystals ([1]; solvent methanol): Form-I
crystal form of the precipitated crystals ([1]; solvent methanol:water 80:20): Form-I
crystal form of the precipitated crystals ([1]; solvent methanol:water 95:5): Form-I
crystal form of the precipitated crystals ([1]; solvent methyl acetate): Form-I
crystal form of the precipitated crystals ([1]; solvent methyl ethyl ketone): Form-I
crystal form of the precipitated crystals ([1]; solvent methyl isobutyl ketone): Form-I
crystal form of the precipitated crystals ([1]; solvent nitromethane): Form-I
crystal form of the precipitated crystals ([1]; solvent t-butyl methyl ether): Form-I
crystal form of the precipitated crystals ([1]; solvent tetrahydrofuran): Form-I
crystal form of the precipitated crystals [1, 11]: Form-I
crystal form of the precipitated crystals [1, 12]: Form-I
crystal form of the precipitated crystals ([1]; solvent toluene): Form-I
crystal form of the precipitated crystals ([1]; solvent trifluoroethanol): —
crystal form of the precipitated crystals ([1]; solvent water): Form-I
crystal form of the precipitated crystals ([2]; solvent 1,4-dioxane): solvate
crystal form of the precipitated crystals [2, 6]: —
crystal form of the precipitated crystals ([2]; solvent 1-butanol): —
crystal form of the precipitated crystals ([2]; solvent 1-methoxy-2 -propanol): —
crystal form of the precipitated crystals ([2]; solvent 1-propanol): Form-I
crystal form of the precipitated crystals ([2]; solvent 2-methoxyethanol): —
crystal form of the precipitated crystals ([2]; solvent 2-methoxyethyl ether): —
crystal form of the precipitated crystals ([2]; solvent 2-propanol): —
crystal form of the precipitated crystals ([2]; solvent 2-propanol:water 80:20): —
crystal form of the precipitated crystals ([2]; solvent 2-propanol:water 95:5): —
crystal form of the precipitated crystals ([2]; solvent N,N-dimethylformamide): —
crystal form of the precipitated crystals ([2]; solvent N-methylpyrrolidone): —
crystal form of the precipitated crystals ([2]; solvent acetone): Form-I
crystal form of the precipitated crystals ([2]; solvent acetone:water 20:80): —
crystal form of the precipitated crystals ([2]; solvent acetone:water 80:20): —
crystal form of the precipitated crystals ([2]; solvent acetone:water 95:5): —
crystal form of the precipitated crystals ([2]; solvent acetonitrile): —
crystal form of the precipitated crystals [2, 7]: —
crystal form of the precipitated crystals [2, 8]: —
crystal form of the precipitated crystals [2, 9]: —
crystal form of the precipitated crystals ([2]; solvent chlorobenzene): —
crystal form of the precipitated crystals ([2]; solvent chloroform): —
crystal form of the precipitated crystals ([2]; solvent cyclohexane): —
crystal form of the precipitated crystals ([2]; solvent cyclohexanone): —
crystal form of the precipitated crystals ([2]; solvent dichloromethane): —
crystal form of the precipitated crystals ([2]; solvent dimethyl carbonate): —
crystal form of the precipitated crystals ([2]; solvent dimethyl sulfoxide): —
crystal form of the precipitated crystals ([2]; solvent ethanol): Form-I
crystal form of the precipitated crystals [2, 10]: Form-I
crystal form of the precipitated crystals ([2]; solvent ethanol:water 20:80): —
crystal form of the precipitated crystals ([2]; solvent ethyl acetate): —
crystal form of the precipitated crystals ([2]; solvent heptane): —
crystal form of the precipitated crystals ([2]; solvent isopropyl acetate): —
crystal form of the precipitated crystals ([2]; solvent isopropyl ether): —
crystal form of the precipitated crystals ([2]; solvent methanol): Form-I
crystal form of the precipitated crystals ([2]; solvent methanol:water 80:20): Form-I
crystal form of the precipitated crystals ([2]; solvent methanol:water 95:5): —
crystal form of the precipitated crystals ([2]; solvent methyl acetate): —
crystal form of the precipitated crystals ([2]; solvent methyl ethyl ketone): —
crystal form of the precipitated crystals ([2]; solvent methyl isobutyl ketone): —
crystal form of the precipitated crystals ([2]; solvent nitromethane): —
crystal form of the precipitated crystals ([2]; solvent t-butyl methyl ether): —
crystal form of the precipitated crystals ([2]; solvent tetrahydrofuran): —
crystal form of the precipitated crystals [2, 11]: —
crystal form of the precipitated crystals [2, 12]: —
crystal form of the precipitated crystals ([2]; solvent toluene): —
crystal form of the precipitated crystals ([2]; solvent trifluoroethanol): —
crystal form of the precipitated crystals ([2]; solvent water): —
crystal form of the precipitated crystals ([3]; solvent acetone): —
crystal form of the precipitated crystals ([3]; solvent acetonitrile): —
crystal form of the precipitated crystals ([3]; solvent dimethyl sulfoxide): Form-I
crystal form of the precipitated crystals ([3]; solvent nitromethane): —
Crystal form ([4]; dissolving solvent 2-methoxyethanol, poor solvent cyclohexane): Form-I
Crystal form ([4]; dissolving solvent 2-methoxyethanol, poor solvent isopropyl acetate): Form-I
Crystal form ([4]; dissolving solvent 2-methoxyethanol, poor solvent t-butyl methyl ether): Form-I
Crystal form ([4]; dissolving solvent 2-methoxyethanol, poor solvent water): —
Crystal form ([4]; dissolving solvent N,N-dimethylformamide, poor solvent 2-propanol): Form-I
Crystal form ([4]; dissolving solvent N,N-dimethylformamide, poor solvent diethyl ether): Form-I
Crystal form ([4]; dissolving solvent N,N-dimethylformamide, poor solvent isopropyl acetate): Form-I
Crystal form ([4]; dissolving solvent N,N-dimethylformamide, poor solvent t-butyl methyl ether): Form-I
Crystal form ([4]; dissolving solvent N,N-dimethylformamide, poor solvent water): Form-I
Crystal form ([4]; dissolving solvent N-methylpyrrolidone, poor solvent 2-propanol): Form-I
Crystal form ([4]; dissolving solvent N-methylpyrrolidone, poor solvent ethyl acetate): Form-I
Crystal form ([4]; dissolving solvent N-methylpyrrolidone, poor solvent toluene): Form-I
Crystal form ([4]; dissolving solvent N-methylpyrrolidone, poor solvent water): Form-I
Crystal form ([4]; dissolving solvent acetone:water 80:20, poor solvent 2-propanol): —
Crystal form ([4]; dissolving solvent acetone:water 80:20, poor solvent water): Form-II
Crystal form ([4]; dissolving solvent dimethyl sulfoxide, poor solvent 2-propanol): Form-I
Crystal form ([4]; dissolving solvent dimethyl sulfoxide, poor solvent diisopropyl ether): —
Crystal form ([4]; dissolving solvent dimethyl sulfoxide, poor solvent ethyl acetate): Form-I
Crystal form ([4]; dissolving solvent dimethyl sulfoxide, poor solvent t-butyl methyl ether): Form-I
Crystal form ([4]; dissolving solvent dimethyl sulfoxide, poor solvent water): —
Crystal form ([4]; dissolving solvent tetrahydrofuran:water 80:20, poor solvent water): Form-I
Crystal form ([4]; dissolving solvent trifluoroethanol, poor solvent cyclohexane): —
Crystal form ([4]; dissolving solvent trifluoroethanol, poor solvent diisopropyl ether): Form-I
Crystal form ([4]; dissolving solvent trifluoroethanol, poor solvent water): —
Structure (SMILES): C[C@H](Nc1cc(-c2cnn(C)c2)cc(Nc2cnccn2)n1)c1ccc(F)cc1.O=C(O)/C=C\C(=O)O [compound A, (S)-N^2-[1-(4-fluorophenyl)ethyl]-4-(1-methyl-1H-pyrazol-4-yl)-N^6-(pyrazin-2-yl)pyridine-2,6-diamine maleate]
JAK2 tyrosine kinase inhibitory action [5]: excellent JAK2 tyrosine kinase inhibitory action
